Consider five molecules from article PMC2774616, “Cellular Assays for High-Throughput Screening for Modulators of Trk Receptor Tyrosine Kinases” (Current Chemical Genomics, 2008).

Data set [1] relates to thapsigargin-induced NFAT-bla reporter activity. The data set is described as follows: Effect of RNAi oligos on thapsigargin-induced NFAT-bla reporter activity in TrkA-, TrkB- and TrkC-NFAT-bla CHO-K1 cells. To be noted: all three cell lines, 50 nM RNAi oligo, Thapsigargin 30 nM 5 h. The data set is classed as cell-based. The procedure:
Cells were plated in 96-well assay plates (Corning, catalog number 3603) at 6,000 cells/well in 100 µL growth medium (DMEM containing 10% dialyzed FBS, 0.1 mM NEAA and 25 mM HEPES), and incubated in 37°C, 5% CO2 incubator overnight. Next morning, Stealth™ RNAi (Invitrogen, catalog number 10620318) and Lipofectamine^TM RNAiMAX (Invitrogen, catalog number 13778) complexes were prepared according to the manufacturer’s protocol and added to the wells (50 nM RNAi oligos and 1µL RNAiMAX/well). RNAi oligo targeting for beta-lactamase was used as the positive control and a random-sequenced oligo with 48% GC content (Med GC) as the negative control. A set of 2 oligos for each Trk was used:
Cells were incubated with RNAi oligos at 37°C for 32 hours, followed by a medium change. Cells were incubated in Assay Medium at 37 °C for 16 hours and then stimulated with respective ligands (NGF, 0.77 nM; BDNF, 1 nM; NT-3, 0.72 nM and Thapsigargin, 30 nM) for 5 hours before beta-lactamase assay was performed as described above.

The subject of data set [2] is NFAT-bla reporter, Trk-NFAT-bla CHO-K1 cells. The data set is described as follows: Thapsigargin stimulation of Trk-NFAT-bla CHO-K1 cell lines. The data set is classed as cell-based. To be noted: used for stimulation in inhibitor assay. The procedure:
Cells in a sub-confluency state (or cryopreserved cells) were resuspended in Assay Medium (DMEM with GlutaMAX™ (Invitrogen, catalog number 10569) supplemented with 0.1% dialyzed FBS, 0.1 mM NEAA, 25 mM HEPES, 100 U/mL Penicillin and 100 µg/mL Streptomycin) and plated in a 384-well assay plate (Corning, Lowell, MA, catalog number 3712) at 10,000 cells (32 μL) per well. 32 μL of Assay Medium without cells were plated in Cell-free Control wells on the same plate. 4 µL 1% DMSO was added to each well to reach final DMSO concentration of 0.1% to mimic the screening situation where compounds dissolved in DMSO are added to test wells. […] Fluorescence intensity at excitation 406 nm and emission 460 nm and 530 nm were obtained using Tecan Safire^2 fluorescence plate reader (Tecan, Durham, NC) (Table 1). After subtracting the average fluorescence intensity from the Cell-free Control wells, the 460nm/530nm emission ratio was calculated. Response Ratio is a measurement of the assay window and is calculated as the 460nm/530nm Emission Ratio of the stimulated wells divided by the 460nm/530nm Emission Ratio of the unstimulated wells. Response Ratios were plotted against test ligand concentrations in log scale and then analyzed using Prism software (GraphPad Software, Inc. San Diego, CA). […]

The subject of data set [3] is Thapsigargin-induced NFAT reporter activity, TrkC-NFAT-bla CHO-K1 cells. Kind of data set: Inhibition of Thapsigargin-induced NFAT reporter activity in TrkC-NFAT-bla CHO-K1 cells. The format is cell-based. To be noted: for IC50: TrkC cells, Thapsigargin 8 nM, 5 h, * values may not be accurate, curves did not reach saturation, read-out: IC50, TrkC, Thaps. The protocol: (§1) Cells in a sub-confluency state (or cryopreserved cells) were resuspended in Assay Medium (DMEM with GlutaMAX™ (Invitrogen, catalog number 10569) supplemented with 0.1% dialyzed FBS, 0.1 mM NEAA, 25 mM HEPES, 100 U/mL Penicillin and 100 µg/mL Streptomycin) and plated in a 384-well assay plate (Corning, Lowell, MA, catalog number 3712) at 10,000 cells (32 μL) per well. 32 μL of Assay Medium without cells were plated in Cell-free Control wells on the same plate. 4 µL 1% DMSO was added to each well to reach final DMSO concentration of 0.1% to mimic the screening situation where compounds dissolved in DMSO are added to test wells. Cells were then stimulated with 4 µL/well 10 x ligands (NGF, BDNF, NT-4 (Invitrogen, catalog number PHC7024), NT-3 or Thapsigargin (Sigma, St. Louis, MO)) over the indicated concentration range (1 pM ~ 50000 pM) for 5 hours before adding 8 µL/well 6X LiveBLAzer™-FRET B/G Substrate mixture (Invitrogen, catalog number K1096) for 2 hours. Fluorescence intensity at excitation 406 nm and emission 460 nm and 530 nm were obtained using Tecan Safire^2 fluorescence plate reader (Tecan, Durham, NC) (Table 1). After subtracting the average fluorescence intensity from the Cell-free Control wells, the 460nm/530nm emission ratio was calculated. Response Ratio is a measurement of the assay window and is calculated as the 460nm/530nm Emission Ratio of the stimulated wells divided by the 460nm/530nm Emission Ratio of the unstimulated wells. Response Ratios were plotted against test ligand concentrations in log scale and then analyzed using Prism software (GraphPad Software, Inc. San Diego, CA). Sigmoidal dose-response equation with varying slope was used to fit the data and generate EC50 values. Z’-factor values were calculated as: Z’-factor = 1 - [(3 x stdevunstim + 3 x stdevmaxstim) / (avgmaxstim – avgunstim)].
(§2) Cells were then stimulated with 4 µL of neurotrophins at 10 x EC80 concentrations (EC80 concentrations are: NGF, 0.77 nM; BDNF, 1 nM; NT-3, 0.72 nM; Thapsigargin, 8 nM) for 5 hours before beta-lactamase assay was performed as described above.

The next data set has as its target T1, human TrkB (Homo sapiens, UniProt Q16620).
T1 construct: Full length human TRKA, TRKB and TRKC cDNAs were synthesized by Blue Heron Biotechnology; expressed in transfected cells
Kind of data set: Inhibition of BDNF-induced beta-lactamase activity in TrkB-NFAT-bla CHO-K1 cells. The format is cell-based.

A further data set deals with T2, human TrkC (Homo sapiens, UniProt Q16288).
T2 construct: Full length human TRKA, TRKB and TRKC cDNAs were synthesized by Blue Heron Biotechnology; expressed in transfected cells
T2 sequence (Q16288 32-825 isoform Q16288-3 limits assumed): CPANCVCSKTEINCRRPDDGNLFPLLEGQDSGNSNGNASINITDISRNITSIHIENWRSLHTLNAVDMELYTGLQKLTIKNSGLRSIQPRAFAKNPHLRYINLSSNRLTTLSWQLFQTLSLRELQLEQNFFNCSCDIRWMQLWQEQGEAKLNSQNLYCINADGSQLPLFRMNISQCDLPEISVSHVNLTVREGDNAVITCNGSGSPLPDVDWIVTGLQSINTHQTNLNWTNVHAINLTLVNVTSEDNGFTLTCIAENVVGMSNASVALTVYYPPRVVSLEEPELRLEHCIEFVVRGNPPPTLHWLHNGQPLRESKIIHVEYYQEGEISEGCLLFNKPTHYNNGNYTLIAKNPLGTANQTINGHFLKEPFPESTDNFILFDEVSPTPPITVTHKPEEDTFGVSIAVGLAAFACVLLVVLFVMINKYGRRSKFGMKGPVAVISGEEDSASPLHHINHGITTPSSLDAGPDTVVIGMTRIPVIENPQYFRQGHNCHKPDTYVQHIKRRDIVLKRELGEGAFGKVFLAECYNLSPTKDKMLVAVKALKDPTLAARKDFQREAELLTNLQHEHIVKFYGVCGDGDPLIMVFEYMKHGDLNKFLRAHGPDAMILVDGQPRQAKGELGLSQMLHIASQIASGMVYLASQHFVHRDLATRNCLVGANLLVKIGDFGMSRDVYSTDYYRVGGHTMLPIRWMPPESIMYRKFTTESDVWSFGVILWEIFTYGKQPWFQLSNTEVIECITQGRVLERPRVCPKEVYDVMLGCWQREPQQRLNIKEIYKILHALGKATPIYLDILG
Kind of data set: Inhibition of NT-3-induced beta-lactamase activity in TrkC-NFAT-bla CHO-K1 cells. The format is cell-based. The procedure:
as §1

The test system of data set [4] is Thapsigargin-induced NFAT reporter activity, TrkA-NFAT-bla CHO-K1 cells. Kind of data set: Inhibition of Thapsigargin-induced NFAT reporter activity in TrkA-NFAT-bla CHO-K1 cells. The conditions noted are these: for IC50: TrkA cells, Thapsigargin 8 nM, 5 h, * values may not be accurate, curves did not reach saturation, read-out: IC50, TrkA, Thaps. The format is cell-based. The procedure: as §1, §2

Data set [5] deals with Thapsigargin-induced NFAT reporter activity, TrkB-NFAT-bla CHO-K1 cells. Kind of data set: Inhibition of Thapsigargin-induced NFAT reporter activity in TrkB-NFAT-bla CHO-K1 cells. The format is cell-based. To be noted: for IC50: TrkB cells, Thapsigargin 8 nM, 5 h, * values may not be accurate, curves did not reach saturation, read-out: IC50, TrkB, Thaps. The procedure: as §1, §2

The target of another data set is T3, human TrkA (Homo sapiens, UniProt P04629).
T3 construct: Full length human TRKA, TRKB and TRKC cDNAs were synthesized by Blue Heron Biotechnology; expressed in transfected cells
T3 sequence (P04629 33-796): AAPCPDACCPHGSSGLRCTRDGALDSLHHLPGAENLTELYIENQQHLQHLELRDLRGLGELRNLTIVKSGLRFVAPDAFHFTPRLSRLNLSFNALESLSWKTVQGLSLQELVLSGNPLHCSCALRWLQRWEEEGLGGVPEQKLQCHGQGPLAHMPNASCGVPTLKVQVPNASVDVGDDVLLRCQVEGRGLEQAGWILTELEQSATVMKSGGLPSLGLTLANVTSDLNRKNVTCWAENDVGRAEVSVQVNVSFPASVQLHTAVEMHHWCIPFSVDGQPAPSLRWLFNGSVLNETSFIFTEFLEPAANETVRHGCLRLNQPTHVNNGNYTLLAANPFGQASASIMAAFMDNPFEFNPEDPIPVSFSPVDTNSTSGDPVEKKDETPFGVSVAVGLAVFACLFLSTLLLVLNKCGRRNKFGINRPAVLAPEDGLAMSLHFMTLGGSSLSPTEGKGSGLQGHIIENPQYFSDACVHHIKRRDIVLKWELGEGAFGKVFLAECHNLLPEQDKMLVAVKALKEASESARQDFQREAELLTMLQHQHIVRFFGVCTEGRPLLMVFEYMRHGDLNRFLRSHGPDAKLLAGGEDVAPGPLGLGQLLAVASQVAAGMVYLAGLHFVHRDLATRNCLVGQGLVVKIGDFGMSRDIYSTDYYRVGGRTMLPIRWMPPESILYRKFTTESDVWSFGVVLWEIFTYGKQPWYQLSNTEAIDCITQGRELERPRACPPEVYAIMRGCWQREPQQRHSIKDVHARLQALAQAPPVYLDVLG
Kind of data set: Inhibition of NGF-induced beta-lactamase activity in TrkA-NFAT-bla CHO-K1 cells. The data set is classed as cell-based.

For the next data set, the system named is TrkA. More on the design: method as in PMID 7683492. To be noted: cited from earlier work.
Setting [6] is: at the highest concentration tested.
The mark [7] stands for this setting: 30 min pretreatment, BDNF at EC80 1 nM, 5 h, read-out: IC50, TrkB, BDNF.
[8] abbreviates: 30 min pretreatment, NT-3 at EC80 0.72 nM, 5 h, read-out: IC50, TrkC, NT-3.

Like-named read-outs stand apart in the source and are kept apart here.

T1 sequence (Q16620 32-838 isoform Q16620-4 limits assumed): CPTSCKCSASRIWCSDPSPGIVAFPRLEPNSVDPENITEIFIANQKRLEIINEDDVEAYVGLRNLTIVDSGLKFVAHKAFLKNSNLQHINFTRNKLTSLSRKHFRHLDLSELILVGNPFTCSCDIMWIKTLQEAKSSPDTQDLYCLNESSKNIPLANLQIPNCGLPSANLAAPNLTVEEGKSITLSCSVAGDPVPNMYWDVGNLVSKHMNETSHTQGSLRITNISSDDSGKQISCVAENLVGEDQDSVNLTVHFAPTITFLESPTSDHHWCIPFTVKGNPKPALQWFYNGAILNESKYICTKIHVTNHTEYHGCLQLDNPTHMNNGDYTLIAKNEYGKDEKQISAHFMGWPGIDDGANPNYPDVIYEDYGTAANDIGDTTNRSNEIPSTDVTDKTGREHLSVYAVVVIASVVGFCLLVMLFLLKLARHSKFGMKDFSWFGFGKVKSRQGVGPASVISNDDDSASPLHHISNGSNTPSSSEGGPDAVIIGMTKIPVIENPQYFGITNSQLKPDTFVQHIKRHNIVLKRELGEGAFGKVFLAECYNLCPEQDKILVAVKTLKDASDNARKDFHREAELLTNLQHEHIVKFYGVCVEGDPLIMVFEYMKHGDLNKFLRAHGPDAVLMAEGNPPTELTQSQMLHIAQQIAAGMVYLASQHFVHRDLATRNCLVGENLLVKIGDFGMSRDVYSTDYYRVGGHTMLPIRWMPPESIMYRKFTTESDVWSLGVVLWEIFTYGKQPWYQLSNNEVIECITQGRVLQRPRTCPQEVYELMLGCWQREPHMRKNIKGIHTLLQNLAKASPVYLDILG

Consider “TRKB2: Stealth RNAi oligo for TrkB, ACACCACGAACAGAAGUAAUGAAAU (Stealth RNAi oligo, modification pattern not given here)”, for which the “inhibitory effect on thapsigargin-induced NFAT-bla reporter activity” value in data set [1] is reported as “about 50%”.

For the molecule `C/C=C(/C)C(=O)O[C@H]1C(C)=C2[C@H]([C@@H]1OC(=O)CCCCCCC)[C@@](C)(OC(C)=O)C[C@H](OC(=O)CCC)[C@@]1(O)[C@H]2OC(=O)[C@@]1(C)O` [Thapsigargin], in [2], the “EC80 concentration, Thapsigargin” value is listed as 8 nM.

As to `COC(=O)[C@@]1(O)C[C@H]2O[C@]1(C)n1c3ccccc3c3c4c(c5c6ccccc6n2c5c31)C(=O)NC4` [K252a], the IC50 (as a rule, the concentration needed to halve the response being measured) in data set [3] is 500 nM; on human TrkB (setting [7]), 11 nM; on human TrkC (setting [8]) it was 30 nM; in [4], 570 nM; in data set [5], greater than 1000 nM. Moreover, the “effect on Thapsigargin induced reporter activity, TrkC cells (in words)” value in data set [3] (setting [6]) is on record as “partial inhibitory effect”. Besides, the “IC50 in words, BDNF-induced beta-lactamase activity in TrkB cells” value on human TrkB is given as “low nano-molar”. Also, the “IC50 in words, NT-3-induced beta-lactamase activity in TrkC cells” value at human TrkC is on record as “low nano-molar”. The “effect on Thapsigargin induced reporter activity, TrkA cells (in words)” value in [4] (setting [6]) is on record as “partial inhibitory effect”. In [5] (setting [6]), the “effect on Thapsigargin induced reporter activity, TrkB cells (in words)” value is “partial inhibitory effect”.

As to `CC(C)(C)c1cc(/C=C(\C#N)C(N)=S)cc(C(C)(C)C)c1O` [AG879], the IC50 in data set [3] is 231 nM; at human TrkB (setting [7]), 1010 nM; on human TrkB (BDNF-induced, read-out: IC50, TrkB-mediated NFAT-bla reporter activity) it was roughly 1000 nM; on human TrkA (30 min pretreatment, NGF at EC80 0.77 nM, 5 h, read-out: IC50, TrkA, NGF), 1330 nM; on human TrkA (NGF-induced, read-out: IC50, TrkA-mediated NFAT-bla reporter activity), roughly 1000 nM; at human TrkC (setting [8]) it was 1310 nM. Further, the IC50 at human TrkC (NT-3-induced, read-out: IC50, TrkC-mediated NFAT-bla reporter activity) is roughly 1000 nM; in data set [4], 112 nM; in [5], 51 nM. Moreover, the “concentrations inhibiting NGF induced TrkA autophosphorylation and PLC-γ phosphorylation” value in the data set on TrkA is on record as “micro-molar concentrations”.

For the molecule “TRKC2: Stealth RNAi oligo for TrkC, CCAGACCAAUCUGAACUGGACCAAU (Stealth RNAi oligo, modification pattern not given here)”, in [1], the “effect on thapsigargin-induced NFAT-bla reporter activity (in words)” value is “did not inhibit”.
